From patent US4563472A, “Iodoallyl and iodopropargyl substituted tetrazoles and anti-microbial compositions thereof” (Meiji Seika Kaisha, Ltd., priority 1982, dated 1986)
Converted amounts (≈) assume the structure as drawn. Where two headings read alike, the source gives them in different places.

Tests used:
Format in all cases: cell-based
Mucor spinescens IAM Mu3 = assay: Antifungal Activity (in Industrial Field), MIC; conditions: IAMMU3, read-out: Minimal Inhibitory Conc. (MIC)
[1] = tested on: Shigella sonnei EW 33 Type I; assay: Antibacterial Activity (in medicinal field), MIC; conditions: EW33TYPEI, read-out: Minimal Inhibitory Conc. (MIC)
Glomerella cingulata = assay: Antibacterial and Antifungal Activities (in Agricultural Field), MIC; conditions: Colletotrichum gloeosporioides, read-out: Minimal Inhibitory Conc. (MIC)
[2] = tested on: Pseudomonas syringae pv. tabaci; assay: as above; conditions: read-out: Minimal Inhibitory Conc. (MIC)
[3] = tested on: Fusarium oxysporum f. lycopersici; assay: as above; conditions: read-out: Minimal Inhibitory Conc. (MIC)
Proteus vulgaris OX-19 = assay: Antibacterial Activity (in medicinal field), MIC; conditions: OX19, read-out: Minimal Inhibitory Conc. (MIC)
Botrytis cinerea = assay: Antibacterial and Antifungal Activities (in Agricultural Field), MIC; conditions: read-out: Minimal Inhibitory Conc. (MIC)
[4] = tested on: Pseudomonas cepacia M-0527; assay: Antibacterial Activity (in medicinal field), MIC; conditions: Burkholderia cepacia, M0527, read-out: Minimal Inhibitory Conc. (MIC)
Cochliobolus miyabeanus = assay: Antibacterial and Antifungal Activities (in Agricultural Field), MIC; conditions: Bipolaris oryzae, read-out: Minimal Inhibitory Conc. (MIC)
[5] = tested on: Penicillium luteum ATCC 9644; assay: Antifungal Activity (in Industrial Field), MIC; conditions: Ascospirella lutea, ATCC9644, read-out: Minimal Inhibitory Conc. (MIC)
[6] = tested on: Xanthomonas campestris pv. citri; assay: Antibacterial and Antifungal Activities (in Agricultural Field), MIC; conditions: read-out: Minimal Inhibitory Conc. (MIC)
[7] = tested on: Pullularia pullulans IAM F-24; assay: Antifungal Activity (in Industrial Field), MIC; conditions: IAMF24; Pullularia pullulans IAM F-24; read-out: Minimal Inhibitory Conc. (MIC)
Phricularia oryzae = assay: Antibacterial and Antifungal Activities (in Agricultural Field), MIC; conditions: read-out: Minimal Inhibitory Conc. (MIC)
Gibberella fujikuroi = assay: as above; conditions: Fusarium fujikuroi, read-out: Minimal Inhibitory Conc. (MIC)
[8] = tested on: Escherichia coli NIHJ JC-2; assay: Antibacterial Activity (in medicinal field), MIC; conditions: NIHJJC2, read-out: Minimal Inhibitory Conc. (MIC)
[9] = tested on: Aspergillus flavus ATCC 6275; assay: Antifungal Activity (in Industrial Field), MIC; conditions: ATCC6275, read-out: Minimal Inhibitory Conc. (MIC)
[10] = tested on: Serratia marcescens MB-3848; assay: Antibacterial Activity (in medicinal field), MIC; conditions: MB3848, read-out: Minimal Inhibitory Conc. (MIC)
Alternaria kikuchiana = assay: Antibacterial and Antifungal Activities (in Agricultural Field), MIC; conditions: read-out: Minimal Inhibitory Conc. (MIC)
[11] = tested on: Staphylococcus aureus 209P JC-1; assay: Antibacterial Activity (in medicinal field), MIC; conditions: read-out: Minimal Inhibitory Conc. (MIC)
[12] = tested on: Aspergillus terreus PQMD 82 j; assay: Antifungal Activity (in Industrial Field), MIC; conditions: PQMD82J, read-out: Minimal Inhibitory Conc. (MIC)
[13] = tested on: Colletotrichum lagenarium; assay: Antibacterial and Antifungal Activities (in Agricultural Field), MIC; conditions: Colletotrichum orbiculare, read-out: Minimal Inhibitory Conc. (MIC)
Candida alubicans GA-24 = assay: Antifungal Activity (in Medicinal Field), MIC; conditions: GA24; Candida alubicans GA-24; read-out: Minimal Inhibitory Conc. (MIC)
Diaporithe citri = assay: Antibacterial and Antifungal Activities (in Agricultural Field), MIC; conditions: read-out: Minimal Inhibitory Conc. (MIC)
Erwinia carotovora = assay: as above; conditions: Pectobacterium carotovorum, read-out: Minimal Inhibitory Conc. (MIC)
[14] = tested on: Trichophyton interdigitale; assay: Antifungal Activity (in Medicinal Field), MIC; conditions: read-out: Minimal Inhibitory Conc. (MIC)
[15] = tested on: Corynebacterium michiganense; assay: Antibacterial and Antifungal Activities (in Agricultural Field), MIC; conditions: Clavibacter michiganensis; Corynebacterium michiganense; read-out: Minimal Inhibitory Conc. (MIC)
[16] = tested on: Trichoderma T-1 ATCC 9645; assay: Antifungal Activity (in Industrial Field), MIC; conditions: ATCC9645, read-out: Minimal Inhibitory Conc. (MIC)
[17] = tested on: Klebsiella pneumoniae PCI-602; assay: Antibacterial Activity (in medicinal field), MIC; conditions: PCI602, read-out: Minimal Inhibitory Conc. (MIC)
Pellicularia filamentosa = assay: Antibacterial and Antifungal Activities (in Agricultural Field), MIC; conditions: read-out: Minimal Inhibitory Conc. (MIC)
[18] = tested on: Aspergillus fumigatus Saito; assay: Antifungal Activity (in Medicinal Field), MIC; conditions: read-out: Minimal Inhibitory Conc. (MIC)
[19] = tested on: Cladosporium herbarum IAM F-517; assay: Antifungal Activity (in Industrial Field), MIC; conditions: IAMF517, read-out: Minimal Inhibitory Conc. (MIC)
[20] = tested on: Chaetomium globosum ATCC 6205; assay: Antifungal Activity (in Industrial Field), MIC; conditions: ATCC6205, read-out: Minimal Inhibitory Conc. (MIC)
[21] = tested on: Aspergillus fumigatus IAM 2621; assay: Antifungal Activity (in Industrial Field), MIC; conditions: IAM2621, read-out: Minimal Inhibitory Conc. (MIC)
[22] = tested on: Staphylococcus epidermidis ATCC 14990; assay: Antibacterial Activity (in medicinal field), MIC; conditions: ATCC14990; Staphylococcus epidermidis ATCC 14990; read-out: Minimal Inhibitory Conc. (MIC)
[23] = tested on: Cryptococcus neoformans Cr-1; assay: Antifungal Activity (in Medicinal Field), MIC; conditions: CR1, read-out: Minimal Inhibitory Conc. (MIC)
[24] = tested on: Trichophyton metagrophytes 530324; assay: Antifungal Activity (in Medicinal Field), MIC; conditions: Trichophyton metagrophytes 530324; read-out: Minimal Inhibitory Conc. (MIC)
[25] = tested on: Pseudomonas maltophilia M-0627; assay: Antibacterial Activity (in medicinal field), MIC; conditions: Stenotrophomonas maltophilia, M0627, read-out: Minimal Inhibitory Conc. (MIC)
[26] = tested on: Bacillus anthracis No. 119; assay: microbe, parasite or virus in culture; conditions: NO.119, read-out: Minimal Inhibitory Conc. (MIC)
Salmonella typhi O-901-W = assay: Antibacterial Activity (in medicinal field), MIC; conditions: Salmonella enterica, read-out: Minimal Inhibitory Conc. (MIC)
[27] = tested on: Xanthomonas campestris pv. oryzae; assay: microbe, parasite or virus in culture; conditions: read-out: Minimal Inhibitory Conc. (MIC)
[28] = tested on: Rhizopus nigricans S.N. 32; assay: Antifungal Activity (in Industrial Field), MIC; conditions: Rhizopus stolonifer, read-out: Minimal Inhibitory Conc. (MIC)
[29] = Staphylococcus aureus 209P JC-1

| SMILES | MIC (Mucor spinescens IAM Mu3) [µg/mL] | MIC (Glomerella cingulata) [µg/mL] | MIC [2] [µg/mL] | MIC [3] [µg/mL] | MIC (Proteus vulgaris OX-19) [µg/mL] | MIC (Botrytis cinerea) [µg/mL] | MIC [4] [µg/mL] | MIC (Cochliobolus miyabeanus) [µg/mL] | MIC [5] [µg/mL] | MIC [6] [µg/mL] | MIC [7] [µg/mL] | MIC (Phricularia oryzae) [µg/mL] | MIC [8] [µg/mL] | MIC [10] [µg/mL] | MIC (Candida alubicans GA-24) [µg/mL] | MIC [14] [µg/mL] | MIC [17] [µg/mL] | MIC [18] [µg/mL] | MIC [23] [µg/mL] | MIC [24] [µg/mL] | also measured |
| --- | --- | --- | --- | --- | --- | --- | --- | --- | --- | --- | --- | --- | --- | --- | --- | --- | --- | --- | --- | --- | --- |
| IC(I)=C(I)Cn1ccnc1 [1-(2',3',3'-triiodoallyl)imidazole] | 6.25 (≈ 12.9 µM) | 1.56 (≈ 3.21 µM) | 12.5 (≈ 25.7 µM) | 1.56 (≈ 3.21 µM) | 12.5 (≈ 25.7 µM) | 1.56 (≈ 3.21 µM) | 6.25 (≈ 12.9 µM) | 6.25 (≈ 12.9 µM) | 0.78 (≈ 1.61 µM) | 25 (≈ 51.5 µM) | 3.13 (≈ 6.44 µM) | 3.13 (≈ 6.44 µM) | 12.5 (≈ 25.7 µM) | 12.5 (≈ 25.7 µM) | 1.56 (≈ 3.21 µM) | 3.12 (≈ 6.42 µM) | 12.5 (≈ 25.7 µM) | 6.25 (≈ 12.9 µM) | 6.25 (≈ 12.9 µM) | 1.56 (≈ 3.21 µM) | MIC ([1]; Shigella sonnei): 6.5 µg/mL (≈ 13.4 µM); MIC (Gibberella fujikuroi): 0.78 µg/mL (≈ 1.61 µM); MIC [9]: 3.13 µg/mL (≈ 6.44 µM); MIC (Alternaria kikuchiana): 1.56 µg/mL (≈ 3.21 µM); MIC [11, 29]: 12.5 µg/mL (≈ 25.7 µM); MIC [12]: 0.78 µg/mL (≈ 1.61 µM); MIC [13]: 1.56 µg/mL (≈ 3.21 µM); MIC (Diaporithe citri): 0.78 µg/mL (≈ 1.61 µM); MIC (Erwinia carotovora): 12.5 µg/mL (≈ 25.7 µM); MIC [15]: 1.56 µg/mL (≈ 3.21 µM); MIC [16]: 6.25 µg/mL (≈ 12.9 µM); MIC (Pellicularia filamentosa): 50 µg/mL (≈ 103 µM); MIC [19]: 0.39 µg/mL (≈ 0.803 µM); MIC [20]: 1.56 µg/mL (≈ 3.21 µM); MIC [21]: 6.25 µg/mL (≈ 12.9 µM); MIC [22]: 12.5 µg/mL (≈ 25.7 µM) |
| IC(I)=C(I)Cn1cnnn1 [1-(2',3',3'-triiodoallyl)tetrazole] |  |  |  |  | 6.25 (≈ 12.8 µM) |  | 0.78 (≈ 1.6 µM) |  |  |  |  |  | 3.13 (≈ 6.42 µM) | 3.13 (≈ 6.42 µM) | 3.12 (≈ 6.4 µM) | 0.39 (≈ 0.799 µM) | 3.13 (≈ 6.42 µM) | 0.78 (≈ 1.6 µM) | 3.12 (≈ 6.4 µM) | 0.39 (≈ 0.799 µM) | MIC ([1]; Shigella sonnei EW 33 Type I): 3.13 µg/mL (≈ 6.42 µM); MIC [25]: 0.78 µg/mL (≈ 1.6 µM); MIC [26]: 0.78 µg/mL (≈ 1.6 µM); MIC (Salmonella typhi O-901-W): 1.56 µg/mL (≈ 3.2 µM); MIC [11, 29]: 31.3 µg/mL (≈ 64.2 µM) |
| IC(I)=C(I)Cn1ncnn1 [2-(2',3',3'-triiodoallyl)tetrazole] | 1.56 (≈ 3.2 µM) | 0.39 (≈ 0.799 µM) | > 100 | 1.56 (≈ 3.2 µM) | 12.5 (≈ 25.6 µM) | 0.39 (≈ 0.799 µM) | 1.56 (≈ 3.2 µM) | 1.56 (≈ 3.2 µM) | 6.25 (≈ 12.8 µM) | 25 (≈ 51.2 µM) | 0.76 (≈ 1.56 µM) | 3.13 (≈ 6.42 µM) | 12.5 (≈ 25.6 µM) | 6.25 (≈ 12.8 µM) | 0.19 (≈ 0.389 µM) | 0.09 (≈ 0.184 µM) | 12.5 (≈ 25.6 µM) | 0.19 (≈ 0.389 µM) | 0.78 (≈ 1.6 µM) | 0.09 (≈ 0.184 µM) | MIC ([1]; Shigella sonnei EW 33 Type I): 6.25 µg/mL (≈ 12.8 µM); MIC [25]: 1.56 µg/mL (≈ 3.2 µM); MIC [27]: 6.25 µg/mL (≈ 12.8 µM); MIC [26]: 1.56 µg/mL (≈ 3.2 µM); MIC (Salmonella typhi O-901-W): 6.25 µg/mL (≈ 12.8 µM); MIC (Gibberella fujikuroi): 0.39 µg/mL (≈ 0.799 µM); MIC [9]: 0.78 µg/mL (≈ 1.6 µM); MIC (Alternaria kikuchiana): 3.13 µg/mL (≈ 6.42 µM); MIC ([11]; Staphylococcus aureus, 209P): 6.25 µg/mL (≈ 12.8 µM); MIC [12]: 0.78 µg/mL (≈ 1.6 µM); MIC [13]: 0.78 µg/mL (≈ 1.6 µM); MIC (Diaporithe citri): 0.78 µg/mL (≈ 1.6 µM); MIC (Erwinia carotovora): > 100 µg/mL; MIC [28]: 3.13 µg/mL (≈ 6.42 µM); MIC [15]: 12.5 µg/mL (≈ 25.6 µM); MIC [16]: 3.13 µg/mL (≈ 6.42 µM); MIC (Pellicularia filamentosa): 50 µg/mL (≈ 102 µM); MIC [19]: 6.25 µg/mL (≈ 12.8 µM); MIC [20]: 12.5 µg/mL (≈ 25.6 µM); MIC [21]: 6.25 µg/mL (≈ 12.8 µM) |
